Experimental data from patent US12643867B2, “Compositions and uses thereof” (University of Virginia Patent Foundation, priority 2017, dated 2026).

Assays:
Assay in all cases: SILAC LC-MS ATP acyl phosphate probe competition, native kinases in HEK293T
Format in all cases: binding
[1] = target: T1, KS6B1 (Ribosomal protein S6 kinase 1, p70 S6 kinase alpha) (Homo sapiens, UniProt P23443); conditions: site Lys2; ATP 1 mM; Ketanserin, Ritanserin 100 μM; RF001 1 mM
T1 construct: measured against >50 native kinases quantified in HEK293T soluble proteomes; endogenous in cells; host or cells: HEK293T soluble proteome
T1 sequence (P23443 whole entry): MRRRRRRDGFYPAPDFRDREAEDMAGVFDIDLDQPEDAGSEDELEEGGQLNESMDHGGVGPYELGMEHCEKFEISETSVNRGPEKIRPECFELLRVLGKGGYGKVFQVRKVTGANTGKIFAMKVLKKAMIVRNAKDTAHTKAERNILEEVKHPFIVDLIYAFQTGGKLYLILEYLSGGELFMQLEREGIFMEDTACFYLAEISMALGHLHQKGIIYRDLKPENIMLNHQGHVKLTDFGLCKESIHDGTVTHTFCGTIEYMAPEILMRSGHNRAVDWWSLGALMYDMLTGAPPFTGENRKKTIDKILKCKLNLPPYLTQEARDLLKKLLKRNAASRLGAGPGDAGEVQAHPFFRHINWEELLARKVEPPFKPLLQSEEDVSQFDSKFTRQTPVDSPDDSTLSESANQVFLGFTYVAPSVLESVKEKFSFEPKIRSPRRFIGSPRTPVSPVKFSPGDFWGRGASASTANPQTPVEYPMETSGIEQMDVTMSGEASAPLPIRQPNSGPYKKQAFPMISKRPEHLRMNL
Description: (§1) Proteomes were diluted to 2 mg/ml in kinase buffer. The light and heavy proteomes (0.5 mg, 250 μL total reaction volume) were pre-treated with vehicle or compound, respectively (5 μL, DMSO (light) or 50× stock in DMSO (heavy)), mixed gently, and incubated at 25° C. for 30 min. […] After incubation, matched light and heavy proteomes were transferred and mixed in a 1:1 ratio in a two-dram vial containing 4:1:3 MeOH/CHCl3/H2O (2 mL MeOH, 500 AL CHCl3, 1.5 mL H2O) for extraction of proteins to remove excess probe, quickly vortexed, and centrifuged at 1,400×g for 3 min to pellet protein. Organic and aqueous layers were removed using a Pasteur pipette, and the protein pellet was transferred to a screw-top tube in 600 μL MeOH. A second extraction was performed by adding CHCl3 (150 μL) and H2O (600 μL) to each sample, vortexed, and centrifuged at 1,400×g for 3 min to pellet protein. Organic and aqueous layers were removed by pipetting. MeOH added to pellet (600 μL) and pellets were re-suspended by sonication (3×1 sec pulse, 20% amplitude) for a final extraction. Samples were then centrifuged at 17,000×g for 5 min to pellet protein and MeOH was removed by pipetting. The pellets were re-suspended in 10 M urea/25 mM ammonium bicarbonate ([…]), brought to a final volume of 1 mL with 25 mM ammonium bicarbonate, reduced with 10 mM DTT for 15 min at 65° C. allowed to cool, and then alkylated with 40 mM iodoacetamide for 30 min at 25° C. in the dark. To desalt the samples, each was transferred to a two-dram glass vial, and to the vial 4:1:2 MeOH/CHCl3/H2O (2 mL MeOH, 500 AL CHCl3, 1 mL H2O) was added. The vials were vortexed quickly, spun at 1.400×g for 3 min to pellet protein, and aqueous and organic layers were removed using a Pasteur pipette. The resulting protein pellet was transferred to a screw-top tube in 600 μL MeOH, and then CHCl3 (150 μL) and HO (600 μL) were added to extract protein a second time. The samples were vortexed quickly, centrifuged at 1,400×g to pellet protein, and the aqueous and organic layers were removed by pipetting. Resulting protein pellet was suspended in MeOH (600 μL) via sonication (3×1 sec pulse, 20% amplitude), centrifuged at 17,000×g for 5 min to pellet protein, and MeOH removed by pipetting. Protein pellets were then re-suspended in 25 mM ammonium bicarbonate (500 μL) and digested with 7.5 μg Trypsin/Lys-C(Promega, 15 μL, 0.5 μg/μL) for 3 h at 37° C. Avidin-agarose beads (Thermo Scientific Pierce, 100 AL aliquot per sample) were washed three times by adding 10 mL DPBS, centrifuged at 1,400×g for 1 min, and decanting. This wash step was repeated for a total of 3 times. Digested protein samples were mixed with washed avidin beads (100 μL) and brought to a volume of 5.5 mL with DPBS in a 15 mL conical and rotated for 1 h to enrich samples for the covalent desthiobiotin modification. The beads were washed with 25 mM ammonium bicarbonate (3× with 10 mL, centrifuge at 1,400×g for 3 min, decant) and then H2O (3× with 10 mL, centrifuge at 1,400×g for 3 min, decant). Washed beads were then transferred to a low-bind microfuge tube, centrifuged at 1,400×g for 3 min, allowed to rest for 1 min to settle beads, and then excess H2O was removed carefully using a gel-loading pipette tip. To elute peptides, 100 μL of elution buffer (50% acetonitrile, ACN; 0.1% formic acid) was added to each sample and incubated for 3 min. Beads were spun down at 1.400×g for 3 min, allowed to rest for 1 min to settle beads, and then 75 μL of peptide-containing supernatant was removed carefully using a gel-loading pipette tip and transferred to a new low bind centrifuge tube. This step was repeated two more times with 75 μL of elution buffer and all eluent were collected into the same centrifuge tube (˜225 μL total). Peptides were dried on a speed vacuum, resulting peptide samples acidified in 5% (v/v) formic acid, and stored at −80° C. until analysis.
(§2) The peptide samples were analyzed by liquid chromatography-mass spectrometry. […]

[2] = target: T2, STK38 (Serine/threonine-protein kinase 38) (Homo sapiens, UniProt Q15208); conditions: site Lys1; ATP 1 mM; Ketanserin, Ritanserin 100 μM; RF001 1 mM
T2 construct: Native kinases; endogenous in cells; host or cells: HEK293T soluble proteome
T2 sequence (Q15208 whole entry): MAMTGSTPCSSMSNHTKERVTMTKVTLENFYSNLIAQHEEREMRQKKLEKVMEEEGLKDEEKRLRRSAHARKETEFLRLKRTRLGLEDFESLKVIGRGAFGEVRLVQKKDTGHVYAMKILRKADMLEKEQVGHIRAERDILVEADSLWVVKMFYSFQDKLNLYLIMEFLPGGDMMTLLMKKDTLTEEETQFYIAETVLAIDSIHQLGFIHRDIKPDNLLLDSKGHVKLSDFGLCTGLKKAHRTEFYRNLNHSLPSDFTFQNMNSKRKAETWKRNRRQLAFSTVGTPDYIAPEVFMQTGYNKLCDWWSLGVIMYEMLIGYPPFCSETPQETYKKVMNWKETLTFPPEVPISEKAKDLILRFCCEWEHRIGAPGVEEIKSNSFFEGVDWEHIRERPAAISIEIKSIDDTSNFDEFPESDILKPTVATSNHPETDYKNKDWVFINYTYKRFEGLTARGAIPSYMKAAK
Description: as §1, §2

[3] = target: T3, MP2K4 (Dual specificity mitogen-activated protein kinase kinase 4) (Homo sapiens, UniProt P45985); conditions: site Lys2; ATP 1 mM; Ketanserin, Ritanserin 100 μM; RF001 1 mM
T3 construct: Native kinases; endogenous in cells; host or cells: HEK293T soluble proteome
T3 sequence (P45985 1-399): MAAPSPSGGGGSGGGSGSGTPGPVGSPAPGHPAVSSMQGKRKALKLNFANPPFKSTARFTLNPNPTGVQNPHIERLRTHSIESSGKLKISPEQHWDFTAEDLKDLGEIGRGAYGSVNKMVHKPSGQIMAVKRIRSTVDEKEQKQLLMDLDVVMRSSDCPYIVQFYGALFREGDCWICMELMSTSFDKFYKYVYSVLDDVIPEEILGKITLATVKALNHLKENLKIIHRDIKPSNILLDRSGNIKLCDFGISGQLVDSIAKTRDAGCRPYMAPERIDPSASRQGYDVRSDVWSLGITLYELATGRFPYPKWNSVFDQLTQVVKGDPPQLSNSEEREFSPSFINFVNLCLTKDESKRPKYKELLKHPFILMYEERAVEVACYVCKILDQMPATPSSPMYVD
Description: as §1, §2

[4] = target: T4, CDK5 (Cell division protein kinase 5) (Homo sapiens, UniProt Q00535); conditions: site Lys2; ATP 1 mM; Ketanserin, Ritanserin 100 μM; RF001 1 mM
T4 construct: measured against >50 native kinases quantified in HEK293T soluble proteomes; endogenous in cells; host or cells: HEK293T soluble proteome
T4 sequence (Q00535 whole entry): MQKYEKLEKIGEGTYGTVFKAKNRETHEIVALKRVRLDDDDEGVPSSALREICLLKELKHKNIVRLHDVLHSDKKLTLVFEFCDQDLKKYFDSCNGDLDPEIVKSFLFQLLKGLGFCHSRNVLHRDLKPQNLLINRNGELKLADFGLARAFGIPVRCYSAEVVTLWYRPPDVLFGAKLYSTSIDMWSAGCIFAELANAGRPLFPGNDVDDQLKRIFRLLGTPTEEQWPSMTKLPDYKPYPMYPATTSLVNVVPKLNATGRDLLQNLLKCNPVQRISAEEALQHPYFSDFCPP
Description: as §1, §2

[5] = target: T5, IRAK1 (Interleukin-1 receptor-associated kinase 1) (Homo sapiens, UniProt P51617); conditions: site Lys2; ATP 1 mM; Ketanserin, Ritanserin 100 μM; RF001 1 mM
T5 construct: measured against >50 native kinases quantified in HEK293T soluble proteomes; endogenous in cells; host or cells: HEK293T soluble proteome
T5 sequence (P51617 whole entry): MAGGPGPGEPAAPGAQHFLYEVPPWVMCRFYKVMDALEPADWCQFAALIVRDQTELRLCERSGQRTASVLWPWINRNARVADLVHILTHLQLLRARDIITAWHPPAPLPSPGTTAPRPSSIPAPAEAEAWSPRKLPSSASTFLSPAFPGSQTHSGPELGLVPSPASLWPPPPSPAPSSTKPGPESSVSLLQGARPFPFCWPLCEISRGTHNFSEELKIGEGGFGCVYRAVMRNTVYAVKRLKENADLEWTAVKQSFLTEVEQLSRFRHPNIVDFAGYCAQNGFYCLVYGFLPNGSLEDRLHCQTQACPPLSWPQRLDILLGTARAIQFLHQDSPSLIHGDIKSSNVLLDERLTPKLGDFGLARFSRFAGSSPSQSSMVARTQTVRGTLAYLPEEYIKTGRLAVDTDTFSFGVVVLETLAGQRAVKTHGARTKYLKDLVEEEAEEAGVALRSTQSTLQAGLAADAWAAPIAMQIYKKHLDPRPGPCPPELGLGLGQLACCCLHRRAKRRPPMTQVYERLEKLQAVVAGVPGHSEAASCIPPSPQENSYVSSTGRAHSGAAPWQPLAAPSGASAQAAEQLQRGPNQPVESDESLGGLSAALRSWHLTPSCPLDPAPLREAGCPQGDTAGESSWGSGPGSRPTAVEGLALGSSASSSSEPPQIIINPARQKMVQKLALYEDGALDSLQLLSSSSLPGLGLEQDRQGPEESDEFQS
Description: as §1, §2

[6] = target: T6, CDK2 (Cell division protein kinase 2) (Homo sapiens, UniProt P24941); conditions: site Lys2; ATP 1 mM; Ketanserin, Ritanserin 100 μM; RF001 1 mM
T6 construct: measured against >50 native kinases quantified in HEK293T soluble proteomes; endogenous in cells; host or cells: HEK293T soluble proteome
Description: as §1, §2

[7] = target: T7, E2AK2 (Interferon-induced, double-stranded RNA-activated protein kinase) (Homo sapiens, UniProt P19525); conditions: site Lys2; ATP 1 mM; Ketanserin, Ritanserin 100 μM; RF001 1 mM
T7 construct: measured against >50 native kinases quantified in HEK293T soluble proteomes; endogenous in cells; host or cells: HEK293T soluble proteome
T7 sequence (P19525 whole entry): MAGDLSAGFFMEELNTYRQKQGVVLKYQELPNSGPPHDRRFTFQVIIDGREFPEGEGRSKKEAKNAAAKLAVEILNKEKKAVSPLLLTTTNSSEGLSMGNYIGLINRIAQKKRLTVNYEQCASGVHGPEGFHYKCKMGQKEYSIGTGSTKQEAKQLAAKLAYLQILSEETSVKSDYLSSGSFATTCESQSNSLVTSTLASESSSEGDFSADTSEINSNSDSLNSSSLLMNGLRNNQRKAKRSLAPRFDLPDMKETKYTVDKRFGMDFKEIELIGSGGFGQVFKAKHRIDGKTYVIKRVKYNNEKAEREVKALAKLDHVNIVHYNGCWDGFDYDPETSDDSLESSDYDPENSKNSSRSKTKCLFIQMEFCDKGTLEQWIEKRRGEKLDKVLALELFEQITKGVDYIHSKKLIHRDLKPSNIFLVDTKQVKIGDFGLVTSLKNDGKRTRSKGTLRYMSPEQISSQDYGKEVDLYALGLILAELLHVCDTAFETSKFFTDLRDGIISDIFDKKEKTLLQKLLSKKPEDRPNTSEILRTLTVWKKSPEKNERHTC
Description: as §1, §2

[8] = target: T8, KCC2G (Calcium/calmodulin-dependent protein kinase type II gamma chain) (Homo sapiens, UniProt Q13555); conditions: site Lys1; ATP 1 mM; Ketanserin, Ritanserin 100 μM; RF001 1 mM
T8 construct: measured against >50 native kinases quantified in HEK293T soluble proteomes; endogenous in cells; host or cells: HEK293T soluble proteome
T8 sequence (Q13555 whole entry): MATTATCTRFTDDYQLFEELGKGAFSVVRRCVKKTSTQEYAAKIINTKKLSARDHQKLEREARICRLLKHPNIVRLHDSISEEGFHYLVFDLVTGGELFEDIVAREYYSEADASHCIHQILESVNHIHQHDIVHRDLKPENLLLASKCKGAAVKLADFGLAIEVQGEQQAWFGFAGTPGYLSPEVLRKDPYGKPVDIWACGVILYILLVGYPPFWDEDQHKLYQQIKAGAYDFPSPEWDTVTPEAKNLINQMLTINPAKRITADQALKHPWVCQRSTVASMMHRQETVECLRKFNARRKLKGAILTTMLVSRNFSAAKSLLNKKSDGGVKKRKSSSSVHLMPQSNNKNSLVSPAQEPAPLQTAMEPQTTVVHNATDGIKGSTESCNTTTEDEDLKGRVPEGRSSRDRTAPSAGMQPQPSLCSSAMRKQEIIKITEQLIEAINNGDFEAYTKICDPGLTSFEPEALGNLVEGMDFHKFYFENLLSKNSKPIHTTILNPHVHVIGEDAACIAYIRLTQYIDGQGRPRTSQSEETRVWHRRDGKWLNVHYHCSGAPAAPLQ
Description: as §1, §2

[9] = target: T9, KCC2D (Calcium/calmodulin-dependent protein kinase type II delta chain) (Homo sapiens, UniProt Q13557); conditions: site Lys1; ATP 1 mM; Ketanserin, Ritanserin 100 μM; RF001 1 mM
T9 construct: measured against >50 native kinases quantified in HEK293T soluble proteomes; endogenous in cells; host or cells: HEK293T soluble proteome
T9 sequence (Q13557 whole entry): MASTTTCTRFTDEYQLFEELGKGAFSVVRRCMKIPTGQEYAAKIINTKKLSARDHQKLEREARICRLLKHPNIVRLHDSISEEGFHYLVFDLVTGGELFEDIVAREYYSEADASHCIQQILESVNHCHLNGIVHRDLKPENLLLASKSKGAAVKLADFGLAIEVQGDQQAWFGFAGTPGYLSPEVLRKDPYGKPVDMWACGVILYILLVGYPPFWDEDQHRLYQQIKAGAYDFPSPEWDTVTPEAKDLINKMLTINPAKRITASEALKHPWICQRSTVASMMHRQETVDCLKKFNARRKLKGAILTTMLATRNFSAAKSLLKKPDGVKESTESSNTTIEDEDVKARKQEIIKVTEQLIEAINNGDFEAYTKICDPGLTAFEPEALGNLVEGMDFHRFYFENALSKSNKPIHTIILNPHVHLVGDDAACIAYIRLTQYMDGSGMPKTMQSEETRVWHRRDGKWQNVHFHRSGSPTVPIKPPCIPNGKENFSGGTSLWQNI
Description: as §1, §2

[10] = target: T10, RAF1 (RAF proto-oncogene serine/threonine-protein kinase) (Homo sapiens, UniProt P04049); conditions: site Lys2; ATP 1 mM; Ketanserin, Ritanserin 100 μM; RF001 1 mM
T10 construct: Native kinases; endogenous in cells; host or cells: HEK293T soluble proteome
T10 sequence (P04049 whole entry): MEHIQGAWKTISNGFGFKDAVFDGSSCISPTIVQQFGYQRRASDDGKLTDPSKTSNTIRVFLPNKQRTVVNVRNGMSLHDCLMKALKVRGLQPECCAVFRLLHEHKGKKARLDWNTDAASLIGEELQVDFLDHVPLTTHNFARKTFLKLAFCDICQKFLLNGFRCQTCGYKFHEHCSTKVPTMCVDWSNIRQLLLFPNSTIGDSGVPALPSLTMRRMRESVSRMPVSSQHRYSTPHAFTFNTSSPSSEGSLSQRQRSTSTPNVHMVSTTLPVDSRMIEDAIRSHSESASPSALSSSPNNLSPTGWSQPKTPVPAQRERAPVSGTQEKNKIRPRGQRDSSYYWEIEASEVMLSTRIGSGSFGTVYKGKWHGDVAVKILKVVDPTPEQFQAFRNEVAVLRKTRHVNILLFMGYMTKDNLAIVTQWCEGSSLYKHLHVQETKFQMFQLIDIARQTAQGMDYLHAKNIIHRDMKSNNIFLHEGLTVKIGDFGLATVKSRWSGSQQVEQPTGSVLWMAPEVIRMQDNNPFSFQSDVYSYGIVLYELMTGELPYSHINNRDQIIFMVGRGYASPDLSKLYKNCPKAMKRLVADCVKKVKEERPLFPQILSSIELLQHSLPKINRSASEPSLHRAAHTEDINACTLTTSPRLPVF
Description: as §1, §2

## O=C(c1ccc(F)cc1)C1CCN(CCn2c(=O)[nH]c3ccccc3c2=O)CC1 [Ketanserin]
[1]
  SILAC ratio, KS6B1 probe-modified peptide: 1.2
[2]
  SILAC ratio, STK38 probe-modified peptide: 1.3
[3]
  SILAC ratio, MP2K4 probe-modified peptide: 1.3
[4]
  SILAC ratio, CDK5 probe-modified peptide: 1.3
[5]
  SILAC ratio, IRAK1 probe-modified peptide: 1.4
[6]
  SILAC ratio, CDK2 probe-modified peptide: 1.6
[7]
  SILAC ratio, E2AK2 probe-modified peptide: 1.3
[8]
  SILAC ratio, KCC2G probe-modified peptide: 1.5
[9]
  SILAC ratio, KCC2D probe-modified peptide: 1.5
[10]
  SILAC ratio, RAF1 probe-modified peptide: 1.4

## Fc1ccc(C(=C2CCNCC2)c2ccc(F)cc2)cc1 [RF001, 4-(Bis(4-fluorophenyl)methylene) piperidine]
[1]
  SILAC ratio, KS6B1 probe-modified peptide: 1.0
[2]
  SILAC ratio, STK38 probe-modified peptide: 1.4
[3]
  SILAC ratio, MP2K4 probe-modified peptide: 0.9
[4]
  SILAC ratio, CDK5 probe-modified peptide: 1.1
[5]
  SILAC ratio, IRAK1 probe-modified peptide: 2.2
[6]
  SILAC ratio, CDK2 probe-modified peptide: 0.7
[7]
  SILAC ratio, E2AK2 probe-modified peptide: 1.2
[8]
  SILAC ratio, KCC2G probe-modified peptide: 1.6
[9]
  SILAC ratio, KCC2D probe-modified peptide: 1.2
[10]
  SILAC ratio, RAF1 probe-modified peptide: 2.1

## Cc1nc2sccn2c(=O)c1CCN1CCC(=C(c2ccc(F)cc2)c2ccc(F)cc2)CC1 [Ritanserin]
[1]
  SILAC ratio, KS6B1 probe-modified peptide: 1.3
[2]
  SILAC ratio, STK38 probe-modified peptide: 2.0
[3]
  SILAC ratio, MP2K4 probe-modified peptide: 1.6
[4]
  SILAC ratio, CDK5 probe-modified peptide: 1.9
[5]
  SILAC ratio, IRAK1 probe-modified peptide: 2.6
[6]
  SILAC ratio, CDK2 probe-modified peptide: 2.9
[7]
  SILAC ratio, E2AK2 probe-modified peptide: 2.8
[8]
  SILAC ratio, KCC2G probe-modified peptide: 2.7
[9]
  SILAC ratio, KCC2D probe-modified peptide: 2.3
[10]
  SILAC ratio, RAF1 probe-modified peptide: 3.9
